Experiments:
[1] = Apparent permeability across apical to basolateral side in human Caco-2 cells incubated for 2 hrs by LC-MS/MS analysis; format: ADME, cell-based
[2] = Cmax in Sprague-Dawley rat at 10 mg/kg, po measured upto 24 hrs by LC/MS-MS analysis; format: ADME, organism-based; conditions: in vivo
[3] = AUClast in Sprague-Dawley rat at 10 mg/kg, po measured upto 24 hrs by LC/MS-MS analysis; format: ADME, organism-based; conditions: in vivo
[4] = Metabolic stability in human liver microsomes assessed as half life measured upto 60 mins in presence of NADPH by LC/MS-MS analysis; format: ADME, Microsome
[5] = Metabolic stability in rat liver microsomes assessed as half life measured upto 60 mins in presence of NADPH by LC/MS-MS analysis; format: ADME, Microsome
[6] = Half-life in Sprague-Dawley rat at 10 mg/kg, po measured upto 24 hrs by LC/MS-MS analysis; format: ADME, organism-based; conditions: in vivo
[7] = target: Replicase polyprotein 1ab (Severe acute respiratory syndrome coronavirus 2, UniProt P0DTD1); assay: Inhibition of SARS-CoV-2 3CL protease using Dabcyl-KTSAVLQSGFRKM-(Edans) as substrate preincubated for 30 mins followed by substrate addition and measured after 60 mins by fluorescence based microplate reader assay
SARS-CoV-2 = assay: microbe, parasite or virus in culture; conditions: Severe acute respiratory syndrome coronavirus 2, Huh-7, 24 h
[8] = Efflux ratio of apparent permeability across basolateral to apical side over apical to basolateral side in human Caco-2 cells; format: ADME, cell-based
[9] = Metabolic stability in human liver S9 fraction assessed as half life measured upto 60 mins by LC/MS-MS analysis; format: ADME, subcellular
[10] = Stability of compound in FaSSGF at 10 uM measured after 4 hrs by LC-MS analysis; format: physicochemical
[11] = Half-life in Sprague-Dawley rat at 50 mg/kg, po measured upto 24 hrs by LC/MS-MS analysis; format: ADME, organism-based; conditions: in vivo
[12] = AUClast in Sprague-Dawley rat at 50 mg/kg, po measured upto 24 hrs by LC/MS-MS analysis; format: ADME, organism-based; conditions: in vivo
[13] = Tmax in Sprague-Dawley rat at 50 mg/kg, po measured upto 24 hrs by LC/MS-MS analysis; format: ADME, organism-based; conditions: in vivo
[14] = Tmax in Sprague-Dawley rat at 10 mg/kg, po measured upto 24 hrs by LC/MS-MS analysis; format: ADME, organism-based; conditions: in vivo
[15] = Cmax in Sprague-Dawley rat at 50 mg/kg, po measured upto 24 hrs by LC/MS-MS analysis; format: ADME, organism-based; conditions: in vivo

SMILES | Papp A→B at 2 h [1] | half-life [4] | IC50 [7] | EC50 (SARS-CoV-2) | efflux ratio [8] | other results
CC(C)(C)[C@H](NC(=O)C(F)(F)F)C(=O)N1C[C@H]2[C@@H]([C@H]1C(=O)N[C@H](C#N)C[C@@H]1CCNC1=O)C2(C)C | 0.27 ×10⁻⁶ cm/s | 20.6 min | – | – | – | Cmax [2]: 2840 ng/mL; AUC(0-t) at 24 h [3]: 2020 ng·h/mL; half-life [5]: 127 min; half-life [6]: 76.2 min
CC1(C)CCCC[C@@H]2C[C@@H](C[C@@H](C#N)NC(=O)[C@@H]3[C@@H]4[C@H](CN3C(=O)[C@H]1NC(=O)C(F)(F)F)C4(C)C)C(=O)N2 | – | 4.4 min | 10 nM | 84 nM | – | –
CC1(C)CNC(=O)[C@@H]2C[C@@H](C[C@@H](C#N)NC(=O)[C@@H]3[C@@H]4[C@H](CN3C(=O)[C@H]1NC(=O)COc1ccc(F)cc1F)C4(C)C)C(=O)N2 | – | 6.3 min | 70 nM | 1550 nM | – | –
CC1(C)COC(=O)[C@@H]2C[C@@H](C[C@@H](C#N)NC(=O)[C@@H]3[C@@H]4[C@H](CN3C(=O)[C@H]1NC(=O)C1CC1)C4(C)C)C(=O)N2 | 0.08 ×10⁻⁶ cm/s | 154 min | 12 nM | 190 nM | 22 | half-life [9]: > 180 min
CC1(C)COC(=O)[C@@H]2C[C@@H](C[C@@H](C#N)NC(=O)[C@@H]3[C@@H]4[C@H](CN3C(=O)[C@H]1NC(=O)C(F)(F)c1ccc(F)cc1)C4(C)C)C(=O)N2 | 0.1 ×10⁻⁶ cm/s | 6 min | 22 nM | 130 nM | 206 | –
CC1(C)CNC(=O)[C@@H]2C[C@@H](C[C@@H](C#N)NC(=O)[C@@H]3[C@@H]4[C@H](CN3C(=O)[C@H]1NC(=O)C1CC1)C4(C)C)C(=O)N2 | – | > 180 min | 32 nM | 6570 nM | – | –
CC1(C)CCCC[C@@H]2C[C@@H](C[C@@H](C#N)NC(=O)[C@@H]3[C@@H]4[C@H](CN3C(=O)[C@H]1NC(=O)OCc1ccccc1)C4(C)C)C(=O)N2 | – | – | 27 nM | 31 nM | – | –
CC1(C)COC(=O)[C@@H]2C[C@@H](C[C@@H](C#N)NC(=O)[C@@H]3[C@@H]4[C@H](CN3C(=O)[C@H]1NC(=O)CC1CC1)C4(C)C)C(=O)N2 | – | 78 min | 21 nM | 310 nM | – | –
COC(=O)N[C@@H]1C(=O)N2C[C@H]3[C@@H]([C@H]2C(=O)N[C@H](C#N)C[C@@H]2C[C@H](NC2=O)C(=O)OCCC1(C)C)C3(C)C | 0.03 ×10⁻⁶ cm/s | > 180 min | 8.9 nM | 179 nM | 65 | –
CC1(C)COC(=O)[C@@H]2C[C@@H](C[C@@H](C#N)NC(=O)[C@@H]3[C@@H]4[C@H](CN3C(=O)[C@H]1NC(=O)C(F)(F)F)C4(C)C)C(=O)N2 | 0.5 ×10⁻⁶ cm/s | > 180 min | 34 nM | 181 nM | 34 | half-life [9]: > 180 min
CC1(C)CNC(=O)[C@@H]2C[C@H](C[C@@H](C#N)NC(=O)[C@@H]3[C@@H]4[C@H](CN3C(=O)[C@H]1NC(=O)OCc1ccccc1)C4(C)C)C(=O)N2 | 0.05 ×10⁻⁶ cm/s | – | 12 nM | – | 103 | –
COC(=O)N[C@@H]1C(=O)N2C[C@H]3[C@@H]([C@H]2C(=O)N[C@H](C#N)C[C@@H]2C[C@@H](CCCCC1(C)C)NC2=O)C3(C)C | – | 13.9 min | 4.6 nM | 100 nM | – | –
CC1(C)CCOC(=O)[C@@H]2C[C@@H](C[C@@H](C#N)NC(=O)[C@@H]3[C@@H]4[C@H](CN3C(=O)[C@H]1NC(=O)C(F)(F)F)C4(C)C)C(=O)N2 | 0.02 ×10⁻⁶ cm/s | > 180 min | 12 nM | 26 nM | 342 | Cmax [2]: 16.2 ng/mL; Stability [10]: Stable; AUC(0-t) at 24 h [3]: 5.94 ng·h/mL; half-life [11]: 28.3 min; AUC(0-t) at 24 h [12]: 72.9 ng·h/mL; Tmax [13]: 20 min; half-life [5]: > 180 min; Tmax [14]: 15 min; Cmax [15]: 102 ng/mL; half-life [6]: 20 min
CN1CC(C)(C)[C@H](NC(=O)OCc2ccccc2)C(=O)N2C[C@H]3[C@@H]([C@H]2C(=O)N[C@H](C#N)C[C@@H]2C[C@H](NC2=O)C1=O)C3(C)C | 0.17 ×10⁻⁶ cm/s | – | > 10000 nM | > 10000 nM | 12 | half-life [9]: 0.17 min
Cc1cccc(C)c1OCC(=O)N[C@@H]1C(=O)N2C[C@H]3[C@@H]([C@H]2C(=O)N[C@H](C#N)C[C@@H]2C[C@H](NC2=O)C(=O)NCC1(C)C)C3(C)C | 0.13 ×10⁻⁶ cm/s | 4 min | 320 nM | 5570 nM | 64 | –
CC1(C)CNC(=O)[C@@H]2C[C@H](C[C@@H](C#N)NC(=O)[C@@H]3[C@@H]4[C@H](CN3C(=O)[C@H]1NC(=O)C(F)(F)F)C4(C)C)C(=O)N2 | 0.09 ×10⁻⁶ cm/s | > 180 min | 75 nM | – | 10 | –
CC(C)(C)C(=O)N[C@@H]1C(=O)N2C[C@H]3[C@@H]([C@H]2C(=O)N[C@H](C#N)C[C@@H]2C[C@H](NC2=O)C(=O)NCC1(C)C)C3(C)C | – | – | 307 nM | – | – | –
COC(=O)N[C@@H]1C(=O)N2C[C@H]3[C@@H]([C@H]2C(=O)N[C@H](C#N)C[C@@H]2C[C@H](NC2=O)C(=O)OCC1(C)C)C3(C)C | 0.16 ×10⁻⁶ cm/s | > 180 min | 8.6 nM | 52 nM | 30 | Cmax [2]: 87.5 ng/mL; Stability [10]: Stable; AUC(0-t) at 24 h [3]: 72.9 ng·h/mL; half-life [5]: 76.2 min; Tmax [14]: 20 min; half-life [6]: 68.4 min; half-life [9]: > 180 min
CC1(C)COC(=O)[C@@H]2C[C@@H](C[C@@H](C#N)NC(=O)[C@@H]3[C@@H]4[C@H](CN3C(=O)[C@H]1NC(=O)OC1CC1)C4(C)C)C(=O)N2 | 0.08 ×10⁻⁶ cm/s | > 180 min | 17 nM | 67 nM | 20 | half-life [9]: > 180 min
CC1(C)COC(=O)[C@@H]2C[C@@H](C[C@@H](C#N)NC(=O)[C@@H]3[C@@H]4[C@H](CN3C(=O)[C@H]1NC(=O)C(F)(F)Cc1ccccc1)C4(C)C)C(=O)N2 | 0.08 ×10⁻⁶ cm/s | 1.7 min | 23 nM | 49 nM | 154 | –
CN1CC(C)(C)[C@H](NC(=O)C(F)(F)F)C(=O)N2C[C@H]3[C@@H]([C@H]2C(=O)N[C@H](C#N)C[C@@H]2C[C@H](NC2=O)C1=O)C3(C)C | – | – | > 10000 nM | > 10000 nM | – | –
CC1(C)COC(=O)[C@@H]2C[C@@H](C[C@@H](C#N)NC(=O)[C@@H]3[C@@H]4[C@H](CN3C(=O)[C@H]1NC(=O)OCc1ccccc1)C4(C)C)C(=O)N2 | 0.16 ×10⁻⁶ cm/s | 6.5 min | 6.4 nM | 25 nM | 108 | –
CC1(C)CNC(=O)[C@@H]2C[C@@H](C[C@@H](C#N)NC(=O)[C@@H]3[C@@H]4[C@H](CN3C(=O)[C@H]1NC(=O)C(F)(F)F)C4(C)C)C(=O)N2 | – | > 180 min | 18 nM | 264 nM | – | –
CC1(C)COC(=O)[C@@H]2C[C@@H](C[C@@H](C#N)NC(=O)[C@@H]3[C@@H]4[C@H](CN3C(=O)[C@H]1NC(=O)C(F)(F)C1CC1)C4(C)C)C(=O)N2 | 0.13 ×10⁻⁶ cm/s | 71 min | 14 nM | 36 nM | 96.4 | Cmax [2]: 131 ng/mL; AUC(0-t) at 24 h [3]: 119 ng·h/mL; half-life [5]: 34.8 min; Tmax [14]: 20 min; half-life [6]: 38.5 min
CC1(C)CNC(=O)[C@@H]2C[C@@H](C[C@@H](C#N)NC(=O)[C@@H]3[C@@H]4[C@H](CN3C(=O)[C@H]1NC(=O)OCc1ccccc1)C4(C)C)C(=O)N2 | – | 4.3 min | 8.8 nM | 73 nM | – | half-life [5]: 4.3 min
